Assay results published in US11639912B2, “Sensor and concentration measurement method” (PHC Holdings Corporation, priority 2009, dated 2023).
Values after ≈ are worked out from the molar mass of the structure shown. Like-named read-outs stand apart in the source and are kept apart here.

Assays:
[1] = Redox / oxidation potentials stated in the description without method; type: physicochemical; details: no method given
[2] = Solubility of mediator in water, evaluated visually; type: physicochemical; details: for solubility: thermodynamic from solid, Table 1, water at 25° C., evaluated visually
Description: Potassium ferricyanide, 9,10-phenanthrenequinone, and sodium 9,10-phenanthrene-quinone-2-sulfonate were weighed out, and water was added to them. The solubility in water at 25° C. was evaluated visually.

[3] = background statement, cited from earlier work
[4] = Redox potential by cyclic voltammetry (glassy carbon working electrode, Ag|AgCl reference); type: physicochemical; details: for Eox (V), potential value at the peak oxidation current / Ered (V), potential value at the peak reduction current: 1 mM in 100 mM phosphate buffer pH 7, sweep 0.1 V/second; for E0′ (V) [(Ered + Eox)/2], redox potential: average of Ered and Eox
Description: Potassium ferricyanide and sodium 9,10-phenanthrenequinone-2-sulfonate were each dissolved in an amount of 1 mM in a 100 mM phosphate buffer (pH 7), to prepare a potassium ferricyanide aqueous solution and a sodium 9,10-phenanthrenequinone-2-sulfonate aqueous solution.
These aqueous solutions were used to measure the redox potential by cyclic voltammetry for potassium ferricyanide and sodium 9,10-phenanthrenequinone-2-sulfonate. More specifically, the electrodes used here were as follows. • working electrode: glassy carbon electrode • counter electrode: platinum wire • reference electrode: silver/silver chloride (saturated potassium chloride) electrode (hereinafter referred to as Ag|AgCl).
A potentiostat was used for measurement. The various electrodes and the potentiostat were types commonly used in electrochemistry. This equipment can be purchased from BAS, for example.
The cyclic voltammetry involved searching for the potential applied to the working electrode, linearly with respect to time. The sweep rate was set to 0.1 V/second. First, a first potential was applied to the working electrode, and the electrode potential was swept to the negative side from the starting potential to a second potential that was more negative. Then, sweep was performed in which the electrode potential was flipped back to the positive side from the second potential to the first potential.
The first and second potentials were 0.7 V and −0.3 V, respectively, in the case of potassium ferricyanide, and were 0.2 V and −0.5 V in the case of sodium 9,10-phenanthrenequinone-2-sulfonate.
The potential discussed next is the potential with respect to Ag|AgCl.
If we calculate the redox potential as the average value [(Ered+Eox)/2] of the potential value at the peak oxidation current (Eox) and the potential value at the peak reduction current (Ered), the redox potential for the sodium 9,10-phenanthrenequinone-2-sulfonate is −150 mV and the redox potential for potassium ferricyanide is 225 mV. Thus, the redox potential for sodium 9,10-phenanthrenequinone-2-sulfonate measured using Ag|AgCl as a reference electrode was negative.
Also, compounds A, B, H′, I, I′, and J and disodium 9,10-phenanthrenequinone-2,7-disulfonate were subjected to cyclic voltammetry by the same operation as in FIG. 4. […]

[5] = FIG. 4, vs Ag|AgCl, 100 mM phosphate buffer pH 7

Structure (SMILES)	Eox (V), potential value at the peak oxidation current ([4]; vs Ag|AgCl)	Ered (V), potential value at the peak reduction current ([4]; vs Ag|AgCl)	E0′ (V) [(Ered + Eox)/2], redox potential ([4]; vs Ag|AgCl)	Solubility in water ([2]; Table 2)	further results
O=C1C=C(S(=O)(=O)O)c2ccccc2C1=O [1,2-naphthoquinone-4-sulfonic acid]					redox potential of mediators pertaining to the invention [1]: −16 mV
O=C1C(=O)c2cc(S(=O)(=O)O)ccc2-c2ccccc21 [9,10-phenanthrenequinone-2-sulfonic acid]					redox potential of mediators pertaining to the invention [1]: −140 mV
O=C1C(=O)c2ccccc2-c2ccccc21 [9,10-phenanthrenequinone]					redox potential of mediators pertaining to the invention [1]: −180 mV; solubility [2]: < 1 mM
Cc1cc2nc3c(=O)[nH]c(=O)nc-3n(C[C@H](O)[C@H](O)[C@H](O)COP(=O)(O)OP(=O)(O)OC[C@H]3O[C@@H](n4cnc5c(N)ncnc54)[C@H](O)[C@@H]3O)c2cc1C [FAD, flavin adenine dinucleotide]					redox potential of coenzymes and prior-art mediator [3]: approximately −300 mV
O=C(O)c1cc(C(=O)O)c2c(n1)C(=O)C(=O)c1cc(C(=O)O)[nH]c1-2 [PQQ, pyrroloquinoline quinone]					redox potential of coenzymes and prior-art mediator [3]: approximately −200 mV
O=C1O[C@H]([C@@H](O)CO)C(O)=C1O [ascorbic acid]					oxidation potential ([3]; vs. Ag|AgCl): approximately −140 mV
O=C1C(=O)c2cc([N+](=O)[O-])ccc2-c2ccccc21 [compound A]	−0.10 V	−0.13 V	−0.12 V	1 mM (≈ 253 µg/mL)	
Nc1ccc2c(c1)C(=O)C(=O)c1ccccc1-2 [compound B]	−0.19 V	−0.23 V	−0.21 V		Solubility in water [2]: 1 mM (≈ 223 µg/mL)
O=C1C(=O)c2cc(-c3ccc(S(=O)(=O)[O-])cc3)ccc2-c2ccccc21.[Na+] [compound H′]	−0.14 V	−0.21 V	−0.18 V	20 mM	
O=C([O-])c1ccc(-c2ccc3c(c2)C(=O)C(=O)c2ccccc2-3)cc1.[Na+] [compound I]	−0.14 V	−0.22 V	−0.18 V	5 mM	
O=C(NCCS(=O)(=O)[O-])c1ccc(-c2ccc3c(c2)C(=O)C(=O)c2ccccc2-3)cc1.[Na+] [compound I′]	−0.14 V	−0.22 V	−0.18 V	20 mM	
O=C([O-])c1cc(C(=O)[O-])cc(-c2ccc3c(c2)C(=O)C(=O)c2ccccc2-3)c1.[Na+].[Na+] [compound J]	−0.15 V	−0.23 V	−0.19 V	50 mM	
O=C1C(=O)c2cc(S(=O)(=O)[O-])ccc2-c2ccc(S(=O)(=O)[O-])cc21.[Na+].[Na+] [disodium 9,10-phenanthrenequinone-2,7-disulfonate]	−0.06 V	−0.18 V	−0.12 V	over 200 mM	
O=C1C(=O)c2cccnc2-c2ncccc21 [phenanthroline quinone]					redox potential of coenzymes and prior-art mediator [3]: approximately 0 mV
O=C1C(=O)c2cc(S(=O)(=O)[O-])ccc2-c2ccccc21.[Na+] [sodium 9,10-phenanthrenequinone-2-sulfonate]	−0.12 V	−0.18 V	−0.15 V		potential at the peak oxidation current [4, 5]: −120 mV; potential at the peak reduction current [4, 5]: −180 mV; redox reaction with a glassy carbon electrode ([4]; cyclic voltammetry): quickly and reversibly; redox potential lower than that of potassium ferricyanide ([4]; difference to potassium ferricyanide): about 400 mV; redox potential [(Ered+Eox)/2] ([4]; vs Ag|AgCl): −150 mV; Solubility in water (in words) [2]: good solubility; solubility [2]: > 80 mM
